In ChEMBL document CHEMBL5233274, “Current Landscape and Future Perspective of Oxazolidinone Scaffolds Containing Antibacterial Drugs” (J Med Chem, 2021):
In brackets after ≈: the same amount, converted by molar mass. Several values for one entry are separate records, joined by “and”; a condition that tells them apart may be missing. Equal values may be shown once.

Tests used:
Listeria monocytogenes = experiment: Antibacterial activity against Listeria monocytogenes assessed as inhibition of bacterial growth by CLSI protocol based microdilution assay; type: functional
Enterococcus faecalis [1] = experiment: Antibacterial activity against Enterococcus faecalis ATCC 51299 assessed as inhibition of bacterial growth by CLSI protocol based microdilution assay; type: functional
Staphylococcus aureus [2] = experiment: Antibacterial activity against Staphylococcus aureus assessed as inhibition of bacterial growth by CLSI protocol based microdilution assay; type: functional
Enterococcus faecalis [3] = experiment: Antibacterial activity against Enterococcus faecalis ATCC 29212 assessed as inhibition of bacterial growth by CLSI protocol based microdilution assay; type: functional
Escherichia coli [4] = experiment: Antibacterial activity against Escherichia coli assessed as inhibition of bacterial growth incubated for 18 hrs by CLSI protocol based method; type: functional
Pseudomonas aeruginosa [5] = experiment: Antibacterial activity against Pseudomonas aeruginosa assessed as inhibition of bacterial growth incubated for 18 hrs by CLSI protocol based method; type: functional
Bacillus subtilis [6] = experiment: Antibacterial activity against Bacillus subtilis assessed as zone of inhibition at 100 ug/ml; type: functional; conditions: read-out: IZ
Enterococcus faecalis [7] = experiment: Antibacterial activity against Streptococcus faecalis NCIM 2080 assessed as inhibition of bacterial growth incubated for 24 hrs by serial dilution method; type: functional
Aspergillus niger = experiment: Antifungal activity against Aspergillus niger NCIM 1317 assessed as inhibition of fungal growth incubated for 48 hrs by serial dilution method; type: functional
Bacillus subtilis [8] = experiment: Antibacterial activity against Bacillus subtilis NCIM 2097 assessed as inhibition of bacterial growth incubated for 24 hrs by serial broth dilution method; type: functional
Escherichia coli [9] = experiment: Antibacterial activity against Escherichia coli NCIM 2065 assessed as inhibition of bacterial growth incubated for 24 hrs by serial dilution method; type: functional
Pseudomonas aeruginosa [10] = experiment: Antibacterial activity against Pseudomonas aeruginosa NCIM 5210 assessed as inhibition of bacterial growth incubated for 24 hrs by serial dilution method; type: functional
Klebsiella pneumoniae = experiment: Antibacterial activity against Klebsiella pneumoniae NCIM 5289 assessed as inhibition of bacterial growth incubated for 24 hrs by serial dilution method; type: functional
Candida albicans [11] = experiment: Antifungal activity against Candida albicans NCIM 3628 assessed as inhibition of fungal growth incubated for 48 hrs by serial dilution method; type: functional
Staphylococcus aureus [12] = experiment: Antibacterial activity against Staphylococcus aureus NCIM 5257 assessed as inhibition of bacterial growth incubated for 24 hrs by serial broth dilution method; type: functional
Pseudomonas aeruginosa [13] = experiment: Antibacterial activity against Pseudomonas aeruginosa assessed as inhibition of bacterial growth by CLSI protocol based microdilution assay; type: functional
Fusarium oxysporum = experiment: Antimicrobial activity against Fusarium oxysporum assessed as inhibition zone at 200 ug/ml incubated for 24 hrs by disk diffusion method; type: functional; conditions: read-out: IZ
Escherichia coli [14] = experiment: Antimicrobial activity against Escherichia coli assessed as inhibition zone at 200 ug/ml incubated for 24 hrs by disk diffusion method; type: functional; conditions: read-out: IZ
Bacillus subtilis [15] = experiment: Antimicrobial activity against Bacillus subtilis assessed as inhibition zone at 200 ug/ml incubated for 24 hrs by disk diffusion method; type: functional; conditions: read-out: IZ
Streptococcus sp. [16] = experiment: Antibacterial activity against linezolid-resistant Streptococcus sp. by broth dilution assay; type: functional
Staphylococcus aureus [17] = experiment: Antibacterial activity against methicillin-resistant Staphylococcus aureus WIS 441 infected in Galleria mellonella larvae incubated for 6 days; type: functional; conditions: time 6 day
Streptococcus sp. [18] = experiment: Antibacterial activity against wild-type beta-hemolytic Streptococcus sp. by broth dilution assay; type: functional
Enterococcus [19] = experiment: Antibacterial activity against Enterococcus assessed as fold increase relative to linezolid; type: functional
Staphylococcus aureus [20] = experiment: Antibacterial activity against Staphylococcus aureus assessed as fold increase relative to linezolid; type: functional
Streptococcus sp. [21] = experiment: Antibacterial activity against wild-type Streptococcus sp. by broth dilution assay; type: functional
MCF7 = experiment: Cytotoxicity against human MCF7 cells assessed as reduction in cell viability by tryphan blue exclusion dye method; type: functional, cell-based
HT-29 = experiment: Cytotoxicity against human HT-29 cells assessed as reduction in cell viability by tryphan blue exclusion dye method; type: functional, cell-based
Candida albicans [22] = experiment: Antifungal activity against Candida albicans assessed as inhibition of fungal growth incubated measured per 100 uL incubated for 24 hrs by agar well diffusion method; type: functional
Staphylococcus aureus [23] = experiment: Antibacterial activity against Staphylococcus aureus assessed as inhibition of bacterial growth measured per 100 uL incubated for 24 hrs by agar well diffusion method; type: functional
Bacillus subtilis [24] = experiment: Antibacterial activity against Bacillus subtilis assessed as inhibition of bacterial growth measured per 100 uL incubated for 24 hrs by agar well diffusion method; type: functional
Saccharomyces cerevisiae = experiment: Antifungal activity against Saccharomyces cerevisiae assessed as inhibition of fungal growth incubated measured per 100 uL incubated for 24 hrs by agar well diffusion method; type: functional; conditions: 24 h
Pseudomonas aeruginosa [25] = experiment: Antibacterial activity against Pseudomonas aeruginosa assessed as inhibition of bacterial growth measured per 100 uL incubated for 24 hrs by agar well diffusion method; type: functional
Escherichia coli [26] = experiment: Antibacterial activity against Escherichia coli assessed as inhibition of bacterial growth measured per 100 uL incubated for 24 hrs by agar well diffusion method; type: functional
Staphylococcus aureus [27] = experiment: Antibacterial activity against linezolid and methicillin-resistant Staphylococcus aureus assessed as inhibition of bacterial growth; type: functional
Enterococcus [28] = experiment: Antibacterial activity against linezolid and vancomycin-resistant Enterococcus assessed as inhibition of bacterial growth; type: functional
Escherichia coli [29] = experiment: Antibacterial activity against Escherichia coli assessed as zone of inhibition at 100 ug/ml; type: functional; conditions: read-out: IZ

## O=C1N[C@@H](Cc2ccc(NC(=S)Nc3ccc(Br)cc3)cc2)CO1
Listeria monocytogenes
  MIC: 25 µg/mL (≈ 61.5 µM)
Enterococcus faecalis [1]
  MIC: 25 µg/mL (≈ 61.5 µM)
Staphylococcus aureus [2]
  MIC: 25 µg/mL (≈ 61.5 µM)
Enterococcus faecalis [3]
  MIC: 25 µg/mL (≈ 61.5 µM)

## CS(=O)(=O)CCCOc1ccc(C#Cc2ccc(N3C[C@@H](C(=O)NO)OC3=O)cc2)cc1
Escherichia coli [4]
  MIC: 6.25 µg/mL (≈ 13.6 µM)
Pseudomonas aeruginosa [5]
  MIC: > 10 µg/mL

## CCCN1C(=O)C(N2C(=O)OCC2Cc2ccc(/N=C/c3ccccc3)cc2)C1c1ccc(OC)cc1OC (centres undefined)
Bacillus subtilis [6]
  zone of inhibition at 100 µg/mL: 23 mm

## O=C(NO)[C@@H]1CN(c2ccc(C#CC#CC3CCCC3)cc2)C(=O)O1
Escherichia coli [4]
  MIC: 0.015 µg/mL (≈ 0.0443 µM)
Pseudomonas aeruginosa [5]
  MIC: > 10 µg/mL

## O=C(/C=C/c1ccccc1F)c1ccc(-c2ccc(N3C[C@H](CO)OC3=O)cc2)cc1
Enterococcus faecalis [7]
  MIC: 3.12 µg/mL (≈ 7.49 µM)
Aspergillus niger
  MIC: 12.5 µg/mL (≈ 29.9 µM)
Bacillus subtilis [8]
  MIC: 3.12 µg/mL (≈ 7.49 µM)
Escherichia coli [9]
  MIC: 3.12 µg/mL (≈ 7.49 µM)
Pseudomonas aeruginosa [10]
  MIC: 3.12 µg/mL (≈ 7.49 µM)
Klebsiella pneumoniae
  MIC: 3.12 µg/mL (≈ 7.49 µM)
Candida albicans [11]
  MIC: 12.5 µg/mL (≈ 29.9 µM)
Staphylococcus aureus [12]
  MIC: 3.12 µg/mL (≈ 7.49 µM)

## O=C(NO)[C@@H]1CN(c2ccc(C#CC#Cc3ccccc3)cc2)C(=O)O1
Escherichia coli [4]
  MIC: 0.12 µg/mL (≈ 0.346 µM)
Pseudomonas aeruginosa [5]
  MIC: > 10 µg/mL

## O=C(NO)[C@@H]1CN(c2ccc(C#CC#CC3CC3)cc2)C(=O)O1
Escherichia coli [4]
  MIC: 0.03 µg/mL (≈ 0.0967 µM)
Pseudomonas aeruginosa [5]
  MIC: > 10 µg/mL

## COc1ccc(NC(=S)Nc2ccc(C[C@H]3COC(=O)N3)cc2)cc1
Pseudomonas aeruginosa [13]
  MIC: 50 µg/mL (≈ 140 µM)

## COc1ccc(/C=C2\OC3(COC(=O)N3)N(CCCNc3ccnc4cc(Cl)ccc34)C2=O)cc1 (centres undefined)
Fusarium oxysporum
  zone of inhibition at 200 µg/mL: 9 mm
Escherichia coli [14]
  zone of inhibition at 200 µg/mL: 11 mm
Bacillus subtilis [15]
  zone of inhibition at 200 µg/mL: 10 mm

## O=C(/C=C/c1cccc(F)c1)c1ccc(-c2ccc(N3C[C@H](CO)OC3=O)cc2)cc1
Enterococcus faecalis [7]
  MIC: 3.12 µg/mL (≈ 7.49 µM)
Aspergillus niger
  MIC: 12.5 µg/mL (≈ 29.9 µM)
Bacillus subtilis [8]
  MIC: 3.12 µg/mL (≈ 7.49 µM)
Escherichia coli [9]
  MIC: 3.12 µg/mL (≈ 7.49 µM)
Pseudomonas aeruginosa [10]
  MIC: 3.12 µg/mL (≈ 7.49 µM)
Klebsiella pneumoniae
  MIC: 3.12 µg/mL (≈ 7.49 µM)
Candida albicans [11]
  MIC: 12.5 µg/mL (≈ 29.9 µM)
Staphylococcus aureus [12]
  MIC: 3.12 µg/mL (≈ 7.49 µM)

## O=C(NO)[C@@H]1CN(c2ccc(-c3ccccc3)cc2)C(=O)O1
Escherichia coli [4]
  MIC: 50 µg/mL (≈ 168 µM)
Pseudomonas aeruginosa [5]
  MIC: > 10 µg/mL

## Cn1nnc(-c2ccc(-c3ccc(N4C[C@H](CO)OC4=O)cc3F)cn2)n1 [TEDIZOLID]
Streptococcus sp. [16]
  MIC90: 8 µg/mL (≈ 21.6 µM)
Staphylococcus aureus [17]
  MED: 2 mg/L
Streptococcus sp. [18]
  MIC90: 0.25 µg/mL (≈ 0.675 µM)
Enterococcus [19]
  fold change (FC): 4
Staphylococcus aureus [20]
  fold change (FC): 4
Streptococcus sp. [21]
  MIC90: 0.25 µg/mL (≈ 0.675 µM)

## O=C1NC2(CO1)O/C(=C\c1ccc(Cl)cc1)C(=O)N2CCCNc1ccnc2cc(Cl)ccc12 (centres undefined)
MCF7
  IC50: 16.1 µg/mL (≈ 32.2 µM)
Fusarium oxysporum
  zone of inhibition at 200 µg/mL: 10 mm
Escherichia coli [14]
  zone of inhibition at 200 µg/mL: 13 mm
HT-29
  IC50: 32.4 µg/mL (≈ 64.9 µM)
Bacillus subtilis [15]
  zone of inhibition at 200 µg/mL: 14 mm

## O=C(/C=C/c1ccc(F)cc1)c1ccc(-c2ccc(N3C[C@H](CO)OC3=O)cc2)cc1
Enterococcus faecalis [7]
  MIC: 3.12 µg/mL (≈ 7.49 µM)
Aspergillus niger
  MIC: 12.5 µg/mL (≈ 29.9 µM)
Bacillus subtilis [8]
  MIC: 3.12 µg/mL (≈ 7.49 µM)
Escherichia coli [9]
  MIC: 3.12 µg/mL (≈ 7.49 µM)
Pseudomonas aeruginosa [10]
  MIC: 3.12 µg/mL (≈ 7.49 µM)
Klebsiella pneumoniae
  MIC: 3.12 µg/mL (≈ 7.49 µM)
Candida albicans [11]
  MIC: 12.5 µg/mL (≈ 29.9 µM)
Staphylococcus aureus [12]
  MIC: 3.12 µg/mL (≈ 7.49 µM)

## CNS(=O)(=O)c1ccc(C#CC#Cc2ccc(N3C[C@@H](C(=O)NO)OC3=O)cc2)cc1
Escherichia coli [4]
  MIC: 0.078 µg/mL (≈ 0.177 µM)
Pseudomonas aeruginosa [5]
  MIC: > 10 µg/mL

## O=C1NC(Cc2ccc(Nc3nc(-c4c(O)oc(O)cc4=O)cs3)cc2)CO1 (centres undefined)
Candida albicans [22]
  MIC: 12.5 µg
Staphylococcus aureus [23]
  MIC: 6.25 µg
Bacillus subtilis [24]
  MIC: 25 µg
Saccharomyces cerevisiae
  MIC: 12.5 µg and 6.25 µg
Pseudomonas aeruginosa [25]
  MIC: 6.25 µg
Escherichia coli [26]
  MIC: 12.5 µg

## OC(Cn1cncn1)(Cn1cncn1)c1ccc(F)cc1F [FLUCONAZOLE]
Fusarium oxysporum
  zone of inhibition at 200 µg/mL: 23 mm

## O=C(NC[C@H]1CN(c2ccc(N3CCOCC3)c(F)c2)C(=O)O1)C(Cl)Cl
Staphylococcus aureus [27]
  MIC: 0.25 µg/mL (≈ 0.615 µM)
Enterococcus [28]
  MIC: 0.25 µg/mL (≈ 0.615 µM)

## O=C1NC2(CO1)O/C(=C\c1ccc([N+](=O)[O-])cc1)C(=O)N2CCCNc1ccnc2cc(Cl)ccc12 (centres undefined)
Fusarium oxysporum
  zone of inhibition at 200 µg/mL: 14 mm
Escherichia coli [14]
  zone of inhibition at 200 µg/mL: 14 mm
Bacillus subtilis [15]
  zone of inhibition at 200 µg/mL: 14 mm

## O=C(CCl)NC[C@H]1CN(c2ccc(N3CCOCC3)c(F)c2)C(=O)O1
Staphylococcus aureus [27]
  MIC: 0.13 µg/mL (≈ 0.35 µM)
Enterococcus [28]
  MIC: 0.13 µg/mL (≈ 0.35 µM)

## Nc1ccc(C#CC#Cc2ccc(N3C[C@@H](C(=O)NO)OC3=O)cc2)cc1
Escherichia coli [4]
  MIC: 0.02 µg/mL (≈ 0.0553 µM)
Pseudomonas aeruginosa [5]
  MIC: > 10 µg/mL

## CS(=O)(=O)CCOc1ccc(C#Cc2ccc(N3C[C@@H](C(=O)NO)OC3=O)cc2)cc1
Escherichia coli [4]
  MIC: 50 µg/mL (≈ 112 µM)
Pseudomonas aeruginosa [5]
  MIC: > 10 µg/mL

## O=C(N[C@H](CO)[C@H](O)c1ccc([N+](=O)[O-])cc1)C(Cl)Cl [CHLORAMPHENICOL]
Escherichia coli [29]
  zone of inhibition at 100 µg/mL: 38 mm
Pseudomonas aeruginosa [13]
  MIC: 50 µg/mL (≈ 155 µM)
Listeria monocytogenes
  MIC: 50 µg/mL (≈ 155 µM)
Enterococcus faecalis [1]
  MIC: 50 µg/mL (≈ 155 µM)
Bacillus subtilis [6]
  zone of inhibition at 100 µg/mL: 37 mm
Staphylococcus aureus [2]
  MIC: 50 µg/mL (≈ 155 µM)
Enterococcus faecalis [3]
  MIC: 50 µg/mL (≈ 155 µM)

## CCCN1C(=O)C(N2C(=O)OCC2Cc2ccc(/N=C/c3ccccc3)cc2)C1c1ccc(Cl)cc1Cl (centres undefined)
Escherichia coli [29]
  zone of inhibition at 100 µg/mL: 24 mm

## O=C(NO)[C@@H]1CN(c2ccc(C#Cc3ccccc3)cc2)C(=O)O1
Escherichia coli [4]
  MIC: 0.625 µg/mL (≈ 1.94 µM)
Pseudomonas aeruginosa [5]
  MIC: > 10 µg/mL
